Experimental data published in PMC7954794, “Protein context shapes the specificity of SH3 domain-mediated interactions in vivo” (Nature Communications, 2021).

What was measured:
[1] = tested on: 575 putative partners (preys) of 22 WT SH3-containing proteins; assay: DHFR-PCA on solid medium, WT and SH3-deleted baits (Fig. 1B); assay type: cell-based, Saccharomyces cerevisiae; parameters: key to Score: 0: SH3-independent; 1: SH3-dependent PPIs; 2: SH3-inhibited PPIs; settings: for medrep (log2 median colony size normalized to plate background, PCA score): label = prey; for Ratio (SH3-deleted/WT medrep): only significant differences shown, PPIs completely lost have a ratio of 0.1, gained PPIs 2.5
Source text: To assess the requirement of SH3 domains for PPIs in vivo, we first measured binary interactions between 22 WT SH3-containing proteins (Supplementary Fig. 1A) as baits and 575 putative partners from their interconnected signaling networks using the dihydrofolate reductase protein–fragment complementation assay (DHFR-PCA) in the budding yeast Saccharomyces cerevisiae. About 33% (202/607) of the PPIs detected were described before, mostly by direct methods (Supplementary Fig. 1B, C)[11]. We repeated the experiments with baits in which the SH3s were individually replaced with a flexible linker by genome editing (SH3 domain deletion/stuffing, Fig. 1A). The stuffer DNA sequence ([…]) codes for a small flexible poly-Gly with Ser peptide ([…]) that is inspired by previous experiments[12],[13]. About a third of the SH3-containing protein interactome is qualitatively or quantitatively SH3-dependent (171 PPIs out of 607, Fig. 1B and Supplementary Fig. 1B, C). We validated the vast majority of the quantitative changes in low-throughput experiments and excluded that this is simply due to changes in protein abundance in most cases (Supplementary Fig. 1D–G). SH3-binding motifs[14] are more frequent in the SH3-dependent PPI partners when compared to sequences from random proteins, SH3-independent PPI partners or PPI partners that are stronger or gained following SH3 deletions (p values = 1.5 × 10^−17, 0.0038 and 2.1 × 10^−08, respectively; Mann–Whitney test, one-tailed, Fig. 1C). The changes we measure are therefore enriched for PPIs that depend on the direct interactions of the domains with the PPI partners.
The complete list of strains, primers, and gRNAs used in this study can be found in Supplementary Tables 1–3. All constructed yeast strains were validated by polymerase chain reaction (PCR) and confirmed by Sanger sequencing of the locus of interest. Bait strains for the DHFR-PCA experiments were constructed as follows. The genes of interest were fused at their genomic 3′ end by replacing the stop codon with a linker ([…]), the DHFR F[1,2] followed by a smaller linker (GGGGS), a 1× FLAG tag ([…]) and the NATMX4 resistance cassette via homologous recombination (all amplified from pAG25-DHFR[1,2]-linker-FLAG). The set of 615 prey strains (DHFR F[3] fusions in the BY4742 background) were retrieved from the Yeast Protein Interactome Collection[43] with the exception of 73 that were reconstructed (Supplementary Tables 1 and 2). Knockout strains were taken from the yeast knockout collection except for ABP1, BEM1, BZZ1, and SLA1, which were reconstructed by replacing the ORFs with the NATMX4 resistance cassette by homologous recombination in the BY4741 background.
Yeast SH3 domain genomic sequences were replaced by CRISPR–Cas9 genome editing. Each SH3 domain (as defined by the SMART database V8.0 except for Ysc84 SH3 (as defined by PROSITE), see Source Data for all SH3 sequences and Supplementary Table 1 for primers used) was specifically targeted by one gRNA[46]. Yeast competent cells were co-transformed with a pCAS plasmid (Addgene plasmid 60847[47]) expressing both the gRNA of interest and Streptococcus pyogenes Cas9[46] and a donor DNA sequence (stuffer) with 60 bp homology arms surrounding the SH3 DNA sequence. The Stuffer DNA was either PCR amplified or digested from a plasmid. The stuffer DNA sequence ([…]) codes for a small flexible linker ([…]) inspired by protein linkers used in structural biology[12],[13]. This type of linker is frequently used for fusing proteins without affecting the structure of the linked proteins.
The overall DHFR-PCA pipeline is based on Tarassov et al.[43] and the procedures have also been published as a visualized protocol. The screens were performed with robotically manipulated pin tools (BM5-SC1, S&P Robotics Inc.). First, the preys were cherry-picked from 96-well plates to omnitrays in a 384 format on YPD + HPH solid media. […]

[2] = tested on: ABP1; assay: DHFR-PCA on solid medium, bait ABP1 (Fig. 1B); assay type: cell-based, Saccharomyces cerevisiae; settings: bait ABP1, label = prey; 2-4 replicates
Source text: (§1) Supplement 41467_2021_21873_MOESM8_ESM.xlsx, sheet "Fig1B" | column: medsize; medrep; Ratio; Score

[3] = tested on: BBC1; assay: DHFR-PCA on solid medium, bait BBC1 (Fig. 1B); assay type: cell-based, Saccharomyces cerevisiae; settings: bait BBC1, label = prey; for medrep (log2 median colony size normalized to plate background, PCA score): 2-4 replicates; for Ratio (SH3-deleted/WT medrep): only significant differences showed, PPIs completely lost have a ratio of 0.1 and the gained PPIs 2.5
Source text: as §1

[4] = tested on: BEM1-1; assay: DHFR-PCA on solid medium, bait BEM1-1 (Fig. 1B); assay type: cell-based, Saccharomyces cerevisiae; settings: bait BEM1-1, label = prey; for medrep (log2 median colony size normalized to plate background, PCA score): 2-8 replicates; for Ratio (SH3-deleted/WT medrep): only significant differences showed, PPIs completely lost have a ratio of 0.1 and the gained PPIs 2.5
Source text: as §1

[5] = tested on: NCK2; assay: NCK2 phase separation in vitro, 60 mM NaCl, Coomassie quantification (Fig. 5E); parameters: species or system mouse; settings: Amount/Total
Procedure: E. coli BL21 (DE3) cells were transformed with mNCK2 constructs in the pET-30b vector and grown overnight at 37 °C in LB with 100 µg/ml kanamycin. The next day, cultures were expanded in LB with kanamycin until they reached their exponential growth phase (OD600 of around 1.0). Protein production was then induced by the addition of 1 mM IPTG (Bio Basic) and incubation at 16 °C overnight with agitation. Cultures were pelleted with a centrifugation step (3200g at 4 °C, 30 min), washed with ice-cold PBS, and pellets were kept at −80 °C. Bacteria were thawed in GST buffer (20 mM Tris-HCl pH 7.5, 0.5 M NaCl, 1 mM EDTA, and 1 mM DTT (Millipore Sigma)) with cOmplete protease inhibitors (Millipore Sigma) and disrupted with sonication. Lysates were then centrifuged at 20,000g for 20 min at 4 °C and the supernatant loaded to a GSTrap FF 1 mL column (GE Healthcare). Following a washing step with 10 mL GST–Buffer, the GST-Tagged proteins were eluted with 15 mM GSH (Bio-basic) and cleaved in a solution using purified recombinant His-tagged TEV protease (Thermo Fisher Scientific). Tag-free NCK2 proteins were further purified using a 1 ml HisTrap FF column (GE Healthcare) to remove free His-tagged GST and TEV as well as remaining impurities. The purified proteins were concentrated with Amicon 10 K filters (Millipore Sigma) and their concentration assessed using Coomassie and BCA assays (Thermo Fisher Scientific).
Purified NCK2 proteins were diluted in GST buffer to identical concentrations. At 500 mM NaCl present in this buffer, all NCK2 constructs were completely soluble. Phase transition was initiated by dilution in imidazole buffer (10 mM imidazole (Bio Basic) pH 7.0, 1 mM DTT, 1 mM EGTA (Millipore Sigma), 1 mM MgCl2, 2.5% Glycerol (Bioshop Canada), 3% Dextran (Millipore Sigma)) containing various amount of NaCl so that the final concentration of NaCl would correspond to those in Supplementary Fig. 7B. For all the other experiments, the phase transition of NCK2 proteins was assessed at 60 mM NaCl. NCK2 at 8 μg/μL (40 μg in 5 μL) was added to 35 μL imidazole buffer in a plastic 96-well plate that had first been pretreated with a 0.2% bovine serum albumin solution to reduce nonspecific binding. The plate assay was then incubated overnight (24 h) at 4 °C before imaging. Phase-contrast images of each well were acquired using a Zeiss Axio Vert.A1 inverted microscope with an LD A-Plan 40×/0.55 Ph1 objective (Zeiss) in Zen Blue software (version 2.3.69.1000). After imaging, the soluble protein fraction (supernatant) was recovered for sodium dodecyl sulfate polyacrylamide gel electrophoresis analysis. Protein droplets attached at the bottom of the well (pellet) were washed once with imidazole buffer with 60 mM NaCl and then solubilized in Laemmli buffer. The pellets to supernatant fractions were used to quantify phase transition at 60 mM NaCl (7 replicates) via Coomassie protein quantification. The involvement of weak hydrophobic interactions in NCK2 driven phase transition was assessed using 1,6-Hexanediol (Millipore Sigma) at 60 mM NaCl. Imidazole buffer containing 0%, 1%, 5%, and 10% 1,6-Hexanediol was first prepared and phase transition was initiated and analyzed as described above. Finally, the competition of SH3-2 dependent homotypic NCK2 interaction with an SH3-2 binding peptide was assessed in the presence of 5, 15, 45, 90, 150, or 300 μM PAK1 peptide ([…]) in imidazole buffer with 60 mM NaCl. The impact of PAK1 peptide addition was observed via phase contrast microscopy as described above.

[6] = bait SLA1-2, DHFR-PCA, Replicates 4 (2 for YCR009C, YDR388W)
[7] = bait SLA1-3, DHFR-PCA, Replicates 4 (2 for YCR009C, YDR388W, YIL033C)

Substance	medrep (log2 median colony size normalized to plate background, PCA score) [1, 6]	Score ([1]; bait SLA1-2, label = prey)	Ratio (SH3-deleted/WT medrep) ([1]; bait SLA1-2, label = prey)	medrep (log2 median colony size normalized to plate background, PCA score) [1, 7]	Score ([1]; bait SLA1-3, label = prey)	medrep (log2 median colony size normalized to plate background, PCA score) [2]	medrep (log2 median colony size normalized to plate background, PCA score) [3]	Ratio (SH3-deleted/WT medrep) [3]	also measured
YOR181W	2.241	1	0.4606	4.865	0	4.4673	1.945	0.4732	–
YPR184W	2.1199	1	0.1	2.1199	0	3.5	–	–	–
YMR026C	–	–	–	–	–	–	–	–	medrep (log2 median colony size normalized to plate background, PCA score) [4]: 3.625; Ratio (SH3-deleted/WT medrep) [4]: 2.5
YDR388W (ETVTALYDYQAQAAGDLSFPAGAVIEIVQRTPDVNEWWTGRYNGQQGVFPGNYVQLNK)	1.88	1	0.1	1.88	0	4.711	1.395	0.1	–
YLR370C	2.335	1	0.5146	4.537	0	5.077	4.024	–	–
YFR024C-A (PKAVALYSFAGEESGDLPFRKGDVITILKKSDSQNDWWTGRVNGREGIFPANYVELV)	–	–	–	4.788	0	5.192	1.926	0.1	–
YHR016C (SATPTAVALYNFAGEQPGDLAFKKGDVITILKKSDSQNDWWTGRTNGKEGIFPANYVRVS)	1.614	1	0.4201	3.842	0	4.9581	–	–	–
YDR265W	–	–	–	–	–	–	–	–	medrep (log2 median colony size normalized to plate background, PCA score) [4]: 2.347; Ratio (SH3-deleted/WT medrep) [4]: 2.5
YER166W	2.422	1	0.1	2.422	0	3.035	–	–	–
NCK2	–	–	–	–	–	–	–	–	Ratio ([5]; Phase Pellet, replicate 1): 0.2548; Ratio ([5]; Phase Pellet, replicate 2): 0.3742; Ratio ([5]; Phase Pellet, replicate 3): 0.4878; Ratio ([5]; Phase Pellet, replicate 4): 0.2596; Ratio ([5]; Phase Pellet, replicate 5): 0.2564; Ratio ([5]; Phase Pellet, replicate 6): 0.2454; Ratio ([5]; Phase Pellet, replicate 7): 0.2712; Ratio ([5]; Phase Soluble, replicate 1): 0.7452; Ratio ([5]; Phase Soluble, replicate 2): 0.6258; Ratio ([5]; Phase Soluble, replicate 3): 0.5122; Ratio ([5]; Phase Soluble, replicate 4): 0.7404; Ratio ([5]; Phase Soluble, replicate 5): 0.7436; Ratio ([5]; Phase Soluble, replicate 6): 0.7546; Ratio ([5]; Phase Soluble, replicate 7): 0.7288
YNL138W	2.731	1	0.1	2.731	0	5.358	2.102	0.1	–
YJL210W	–	–	–	–	–	–	–	–	medrep (log2 median colony size normalized to plate background, PCA score) [4]: 1.8146; Ratio (SH3-deleted/WT medrep) [4]: 2.5
YIL062C	–	–	–	4.44	0	5.265	4.09	–	–
